In patent US20060178342A1, “Hyaluronan as a cytotoxic agent, drug pre-sensitizer and chemo-sensitizer in the treatment of disease” (priority 2001, published 2006):
Entries after “also recorded” stand apart in the source; their conditions may differ.

Tests used:
[1] = system: MDA-MB-468 human breast carcinoma xenografts; experiment: 6-week efficacy study of HA ± 5-FU in nude mouse xenografts; format: in vivo
Protocol: From the results in Example 2 the carcinoma cell line MDA-MB-468 was selected as the cancer cell inoculant for the generation of any nude mouse human tumour xenografts. Cells were routinely grown and subcultured as a previously described in Example 2. For injection into mice, cells were grown to 100% confluency, trypsinised in 0.025% trypsin/0.01% EDTA solution, washed twice by centrifugation in a Beckman TJ-6 bench centrifuge at 400 gav for 10 min, counted using a Model-ZM Coulter counter and resuspended in serum-free Leibovitz L-15 medium at 1×10^8 cells/ml. […]
Individual injections of 5-FU were prepared according to individual mouse masses, with the aim of delivering 30 mg/kg 5-FU in 50 μl (equivalent to human therapeutic dose of 10.5 mg/kg for a mean body weight of 60 kg; Inaba et al, 1988). […] With this quantity of HA injected into the body, saturation kinetics would be observed for the period of the experimentation (Fraser et al, 1983). […]
Animals were weighed and tumour volumes measured on the day of treatment application for long term study. In the 6-week study animals were weighed and tumour volumes measured on a daily basis. […]
Tumour volume was monitored on a daily or weekly basis by caliper measurements and tumour volume calculated as previously described.

[2] = system: Human LIM1215 colon cancer xenografts; experiment: 14-week efficacy study, irinotecan ± HA in colon cancer xenografts; format: in vivo, mouse; conditions: 13.3, 26.6 or 150 mg/kg HA, IV bolus Day 1 of 14 × q7 D
Description: Human LIM1215 colon cancer xenografts were inoculated into the mammary fat pad of athymic […] nude mice. Mice were randomly distributed into eight treatment groups (8 mice per group).
The treatment regime comprised of injections on Day 1 of a 7-day cycle for duration of fourteen weeks. Primary tumor volume, animal body mass, energy levels and food consumption were monitored three times weekly.
Athymic CBA/WEHI nude female mice (Walter and Eliza Hall Research Institute, Melbourne, Australia), 6 to 8 weeks old, were maintained under specific pathogen-free conditions, with sterilized food and water available ad libitum. Each mouse received one injection containing 1×10^7 cells in 50-100 μl. […]
Any animals with a tumor volume expressed as a percentage of body weight outside 0.25±0.10 (mean±1 SD) were excluded from data analysis. […]
The experimental end-point for each animal occurred either when the animal had to be euthanized due to a high degree of disease progression or when the 14-week study had been completed. The animals were monitored three times weekly and the following criteria were established to determine whether an animal had reached the experimental end point: tumour mass is greater than 10% of the animals total body mass; the animal is metabolically stressed (i.e. losing weight); or the animal is immobilized.

## hyaluronan [HA]
[1]; 6-week study
  non-lymphoid metastasis (new tumours near primary tumour): significant reduction in non-lymphoid metastasis
[1]; iv 12.5 mg/kg HA and/or 30 mg/kg 5-FU, 6 x 7 day cycles
  tumour mass at the end of the 6 week study, compared with other groups: significantly decreased the primary tumour mass; also recorded: reducing the primary tumour mass in comparison to the saline control
[2]
  disease course with HA alone: progressive disease
